What was measured:
platelet aggregation = test: In vivo platelet antiaggregation activity; parameters: species or system male rats, Wistar strain; conditions: rats
Method: This experiment was carried out on male rats of the Wistar strain having a weight of 320±20 grams. Both the MRAP2 and the aspirin (used as a comparison drug) were dissolved in a physiological solution, and the solutions, adjusted to pH 7.4, were administered orally in doeses of 3 mg/kg to two groups of three rats each. […] The concentration of the solution was adjusted to contain 100 mg of MRAP2 per ml. Blood samples were drawn from each animal 72 and 120 hours after treatment, for checking the platelet aggregation. In calculating the activity, the previous method was used (the average of the three maximum amplitudes of the curves obtained with the untreated rats was given the control figure of 100%).

stomach (gastric lesion) [1] = test: Ulcerogenic activity in rats after a single administration; type: in vivo, male albino rats, Wistar strain; conditions: rats; for Average degree of lesion + E.E.: scale 0-7, controls 0.65 ± 0.1
Method: The ulcerogenic activity of MRAP2 was tested both after a single administration of the drug, and after prolonged administration.
In these tests, a total of 70 male albino rats of Wistar strain were used, having a weight of 200±20 grams.
The MRAP2 was administered diluted in tap water.
40 rats, fasted for 18 hours before the experiment, were divided into four batches of ten animals and treated orally as follows:
3rd group: MRAP2 (50 mg/kg)
4th group: MRAP2 (125 mg/kg).
The animals were killed after six hours. The stomach was withdrawn and the gastric lesion index was evaluated in terms of an arbitrary scale of values lying between 0. and 7 based on previous models proposed by other authors.
Furthermore, the treatment was randomised in order to eliminate any possible polarisation of the data.
The points given for gastric ulcerative lesions were as follows:
(1) hyperaemia or slight capillary obstruction; or slight loss of the epithelium; or some petechiae even with pale mucosa without hyperaemia;
(2) diffuse capillary obstructions or numerous petechiae; or diffuse loss of the epithelium; of a few surface lesions;
(3) strong submucosa haemorrhage; or many petechiae and small surface lesions; or much anaemic mucosa (yellowish colour); or up to three small ulcers;
(4) general pattern as in the previous numbers, plus up to ten small ulcers; or long erosions; or up to three medium sized ulcers;
(5) pattern as in number 4, with up to 15 small ulcers; or up to 6 large ulcers;
(6) pattern as previously, with up to ten large ulcers, plus small ulcers;
(7) pattern as previously, plus up to ten large ulcers and small ulcers; cases of perforated ulcers.

stomach (gastric lesion) [2] = test: Ulcerogenic activity in rats after prolonged administration; type: in vivo, male albino rats, Wistar strain
Method: The ulcerogenic activity of MRAP2 was tested both after a single administration of the drug, and after prolonged administration. In these tests, a total of 70 male albino rats of Wistar strain were used, having a weight of 200±20 grams. The MRAP2 was administered diluted in tap water. The points given for gastric ulcerative lesions were as follows: (0) no lesion; (1) hyperaemia or slight capillary obstruction; or slight loss of the epithelium; or some petechiae even with pale mucosa without hyperaemia; (2) diffuse capillary obstructions or numerous petechiae; or diffuse loss of the epithelium; of a few surface lesions; (3) strong submucosa haemorrhage; or many petechiae and small surface lesions; or much anaemic mucosa (yellowish colour); or up to three small ulcers; (4) general pattern as in the previous numbers, plus up to ten small ulcers; or long erosions; or up to three medium sized ulcers; (5) pattern as in number 4, with up to 15 small ulcers; or up to 6 large ulcers; (6) pattern as previously, with up to ten large ulcers, plus small ulcers; (7) pattern as previously, plus up to ten large ulcers and small ulcers; cases of perforated ulcers. 30 Rats were divided into three batches of ten animals each, and subjected daily over a period of six days to the following oral treatment: 1st group: controls 2nd group: MRAP2 (50 mg/kg) 3rd group: MRAP2 (125 mg/kg) Six hours after the last treatment, the animals were killed and the lesion index was evaluated following the techniques and methods previously described.

Cl.Clc1ccccc1CN1CCCC1 [MRAP2, N-(2-chlorobenzyl)-pyrrolidine hydrochloride]
antiaggregation activity in vivo (in words) (platelet aggregation; oral 3 mg/kg, comparison with aspirin): superior to that of aspirin | % platelet antiaggregation activity on day 3 (platelet aggregation; single oral dose 3 mg/kg, day 3 (72 hours)): 38% | % platelet aggregation on day 3 (platelet aggregation; single oral dose 3 mg/kg, day 3 (72 hours), controls = 100): 62% | % platelet antiaggregation activity on day 5 (platelet aggregation; single oral dose 3 mg/kg, day 5 (120 hours)): 37% | % platelet aggregation on day 5 (platelet aggregation; single oral dose 3 mg/kg, day 5 (120 hours), controls = 100): 63% | Average degree of lesion + E.E. (stomach (gastric lesion) [1]; single oral 50 mg/kg): 0.80 ± 0.1 | Average degree of lesion + E.E. (stomach (gastric lesion) [1]; single oral 125 mg/kg, P <0.05 with regard to controls): 1.15 ± 0.2 | incidence of ulcerative lesions (in words) (stomach (gastric lesion) [1]; single oral administration, relative to control animals): almost identical or slightly greater than that of the control animals | Average degree of lesion ± E.E. (stomach (gastric lesion) [2]; oral 50 mg/kg daily for six days, scale 0-7, controls 0.57 ± 0.1): 0.86 ± 0.2 | Average degree of lesion ± E.E. (stomach (gastric lesion) [2]; oral 125 mg/kg daily for six days, scale 0-7, controls 0.57 ± 0.1, P <0.05 with regard to controls): 1.07 ± 0.2 | ulcerogenic activity (in words) (stomach (gastric lesion) [2]; oral daily for six days): significant only at a dose of 125 mg/kg, but even then only slight
